Source: ChEMBL document CHEMBL5505963, “Novel berberine derivatives as p300 histone acetyltransferase inhibitors in combination treatment for breast cancer” (Eur J Med Chem, 2024)
Calls of active or inactive are those of the source. The calls are words filed in the database; no cut-off is given here.

How the values were obtained:
[1] = biological target: Histone acetyltransferase p300 (Homo sapiens, UniProt Q09472); test: Inhibition of p300 HAT (unknown origin) using 3H-acetyl-CoA as substrate assessed as H3 peptide acetylation preincubated with compound for 15 mins followed by substrate addition and measured after 30 mins by microbeta scintillation counter analysis
Sequence of Histone acetyltransferase p300 (Q09472 whole entry): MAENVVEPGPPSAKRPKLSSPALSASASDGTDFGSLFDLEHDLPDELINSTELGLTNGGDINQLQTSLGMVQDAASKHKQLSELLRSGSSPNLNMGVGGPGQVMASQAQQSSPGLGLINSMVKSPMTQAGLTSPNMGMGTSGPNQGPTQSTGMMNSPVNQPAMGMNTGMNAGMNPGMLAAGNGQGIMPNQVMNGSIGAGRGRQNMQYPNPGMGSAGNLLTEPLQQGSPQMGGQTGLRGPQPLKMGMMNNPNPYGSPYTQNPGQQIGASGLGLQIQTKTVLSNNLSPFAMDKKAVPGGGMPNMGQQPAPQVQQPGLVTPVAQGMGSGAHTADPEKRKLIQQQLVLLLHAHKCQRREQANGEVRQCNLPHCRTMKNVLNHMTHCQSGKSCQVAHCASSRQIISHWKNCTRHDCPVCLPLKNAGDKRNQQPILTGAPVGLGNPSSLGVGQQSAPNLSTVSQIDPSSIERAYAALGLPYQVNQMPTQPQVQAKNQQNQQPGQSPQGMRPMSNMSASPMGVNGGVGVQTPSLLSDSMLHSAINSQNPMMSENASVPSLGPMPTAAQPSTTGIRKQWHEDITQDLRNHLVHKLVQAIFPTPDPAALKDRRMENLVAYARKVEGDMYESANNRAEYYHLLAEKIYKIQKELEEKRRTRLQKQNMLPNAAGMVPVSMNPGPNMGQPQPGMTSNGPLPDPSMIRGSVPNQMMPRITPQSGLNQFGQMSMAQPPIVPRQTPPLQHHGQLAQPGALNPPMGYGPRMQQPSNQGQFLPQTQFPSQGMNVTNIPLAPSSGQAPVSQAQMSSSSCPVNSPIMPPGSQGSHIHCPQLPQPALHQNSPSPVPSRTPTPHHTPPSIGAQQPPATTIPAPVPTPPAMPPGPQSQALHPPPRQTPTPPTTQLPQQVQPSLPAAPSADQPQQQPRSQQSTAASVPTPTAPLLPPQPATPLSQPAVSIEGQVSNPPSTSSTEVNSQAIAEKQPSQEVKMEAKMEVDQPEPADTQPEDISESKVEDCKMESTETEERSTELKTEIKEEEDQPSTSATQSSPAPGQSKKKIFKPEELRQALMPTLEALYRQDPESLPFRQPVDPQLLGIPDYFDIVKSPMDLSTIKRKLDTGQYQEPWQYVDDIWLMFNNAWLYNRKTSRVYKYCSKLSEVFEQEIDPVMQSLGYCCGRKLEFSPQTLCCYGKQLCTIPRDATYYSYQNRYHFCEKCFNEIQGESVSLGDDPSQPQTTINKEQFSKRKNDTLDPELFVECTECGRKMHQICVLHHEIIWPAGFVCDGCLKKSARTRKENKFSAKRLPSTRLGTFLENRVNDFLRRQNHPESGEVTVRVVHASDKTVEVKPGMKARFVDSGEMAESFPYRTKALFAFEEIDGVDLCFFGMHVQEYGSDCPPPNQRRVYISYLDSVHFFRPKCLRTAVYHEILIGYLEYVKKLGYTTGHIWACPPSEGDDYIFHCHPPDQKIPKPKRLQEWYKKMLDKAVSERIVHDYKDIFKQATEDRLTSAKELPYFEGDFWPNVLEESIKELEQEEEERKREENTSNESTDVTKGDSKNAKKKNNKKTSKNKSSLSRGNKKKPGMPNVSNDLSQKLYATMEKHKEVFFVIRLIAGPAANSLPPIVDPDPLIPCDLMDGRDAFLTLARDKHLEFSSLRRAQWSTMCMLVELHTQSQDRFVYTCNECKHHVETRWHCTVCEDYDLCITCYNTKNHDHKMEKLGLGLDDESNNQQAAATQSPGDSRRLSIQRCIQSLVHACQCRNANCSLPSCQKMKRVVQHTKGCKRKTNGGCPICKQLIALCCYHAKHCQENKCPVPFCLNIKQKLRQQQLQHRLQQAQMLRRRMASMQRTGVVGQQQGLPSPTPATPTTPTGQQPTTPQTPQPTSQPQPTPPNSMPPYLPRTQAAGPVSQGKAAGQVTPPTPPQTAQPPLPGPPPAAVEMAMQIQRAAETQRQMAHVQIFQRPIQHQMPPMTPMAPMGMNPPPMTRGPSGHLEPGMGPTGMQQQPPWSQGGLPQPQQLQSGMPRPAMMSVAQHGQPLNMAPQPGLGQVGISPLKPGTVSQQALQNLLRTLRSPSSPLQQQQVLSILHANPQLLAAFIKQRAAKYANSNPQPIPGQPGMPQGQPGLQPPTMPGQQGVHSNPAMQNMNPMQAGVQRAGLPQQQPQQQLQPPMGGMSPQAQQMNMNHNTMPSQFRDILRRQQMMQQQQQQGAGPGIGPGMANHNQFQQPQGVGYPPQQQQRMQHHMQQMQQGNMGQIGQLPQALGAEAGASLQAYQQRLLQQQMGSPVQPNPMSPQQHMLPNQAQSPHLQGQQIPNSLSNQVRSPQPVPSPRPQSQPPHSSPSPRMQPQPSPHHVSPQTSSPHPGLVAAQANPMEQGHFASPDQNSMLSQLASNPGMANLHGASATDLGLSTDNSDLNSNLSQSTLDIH

MCF7 [2] = test: Antiproliferative activity against human MCF7 cells assessed as inhibition of cell growth incubated for 48 hrs by MTT assay; assay type: functional, cell-based; conditions: MCF7, 48 h
LNCaP = test: Antiproliferative activity against human LNCaP cells assessed as inhibition of cell growth incubated for 48 hrs by MTT assay; assay type: functional, cell-based
PANC-1 = test: Antiproliferative activity against human PANC-1 cells assessed as inhibition of cell growth incubated for 48 hrs by MTT assay; assay type: functional, cell-based; conditions: PANC-1, 48 h
MCF-10A [3] = test: Antiproliferative activity against human MCF-10A cells assessed as inhibition of cell growth incubated for 48 hrs by MTT assay; assay type: functional, cell-based
MCF-10A [4] = test: Antiproliferative activity against human MCF-10A cells assessed as inhibition of cell growth at 50 uM incubated for 48 hrs by MTT assay relative to control; assay type: functional
MCF7 [5] = test: Antiproliferative activity against human MCF7 cells assessed as inhibition of cell proliferation incubated for 48 hrs by MTT assay; assay type: functional, cell-based; conditions: MCF7, 48 h
MCF7 [6] = test: Induction of apoptosis in human MCF7 cells assessed as upregulation of cleaved caspase 3 level at 1 microg/ml incubated for 24 hrs by Western blot analysis; assay type: functional, cell-based; conditions: dose 1.0 µg/ml
MCF7 [7] = test: Induction of apoptosis in human MCF7 cells assessed as upregulation of cleaved PARP level at 1 microg/ml uM incubated for 24 hrs by Western blot analysis; assay type: functional, cell-based; conditions: dose 1.0 µg/ml
MCF7 [8] = test: Downregulation of survivin level in human MCF7 cells at 1 microg/ml incubated for 24 hrs by Western blot analysis; assay type: functional, cell-based; conditions: dose 1.0 µg/ml
MCF7 [9] = test: Inhibition of cell migration in human MCF7 cells assessed as reduction in scratch measured after 24 hrs by microscopic analysis; assay type: functional
MCF7 [10] = test: Inhibition of cell invasion in human MCF7 cells measured after 24 hrs by crystal violet staining based microscopic analysis; assay type: functional
MCF7 [11] = test: Antitumor activity against human MCF7 cells xenografted in BALB/c nude mouse assessed as tumor growth inhibition at 2 mg/kg, ip measured upto 14 days; assay type: functional; conditions: MCF7, 336 h, time <= 14 day, read-out: TGI

Compound	IC50 [1]	IC50 (MCF7 [2])	IC50 (LNCaP)	IC50 (PANC-1)	IC50 (MCF-10A [3])	other results
COc1ccc2cc3[n+](cc2c1OC)CCc1cc2c(cc1-3)OCO2 [BERBERINE CHLORIDE]	8.91 µM	> 50 µM	> 50 µM	> 50 µM	> 50 µM	
COc1ccc2cc3[n+](cc2c1OC)CCOc1cc2c(cc1-3)OCO2	8.01 µM					
COc1ccc2cc3[n+](cc2c1OC)CCCSc1cc2c(cc1-3)OCO2	> 20 µM					
COc1cc2cc3[n+](cc2cc1OC)CC(C)COc1cc2c(cc1-3)OCO2 (stereo unspecified)	4.78 µM	29.5 µM	40.7 µM	33.7 µM	> 50 µM	inhibition at 50 µM (MCF-10A [4]): 77%
COc1cccc2c1C(=O)c1c(O)c3c(c(O)c1C2=O)C[C@@](O)(C(=O)CO)C[C@@H]3O[C@H]1C[C@H](N)[C@H](O)[C@H](C)O1 [DOXORUBICIN]						IC50 (MCF7 [5]): 2.46 µM; Activity (MCF7 [6]): inactive; Activity (MCF7 [7]): inactive; Activity (MCF7 [8]): Active; inhibition (INH) (MCF7 [9]): 62.43%; inhibition (MCF7 [10]): Active; inhibition in vivo at 2 mg/kg (MCF7 [11]): 64.3%
COc1ccc2cc3[n+](cc2c1OC)CCNc1cc2c(cc1-3)OCO2	6.78 µM					
COc1cc2cc3[n+](cc2cc1OC)CCOCCOc1cc2c(cc1-3)OCO2	5.87 µM					
COc1ccc2cc3[n+](cc2c1OC)CCCOc1cc2c(cc1-3)OCO2	> 20 µM					
C1=CC2C=C3c4cc5c(cc4OCC[N+]3=CC2S1)OCO5 (stereo unspecified)	9.31 µM					

Second part, led by results:

IC50 [1]	IC50 (MCF7 [2])	IC50 (LNCaP)	IC50 (PANC-1)	Compound	IC50 (MCF-10A [3])	other results
3.39 µM	36.7 µM	> 50 µM	> 50 µM	COc1cc2cc3[n+](cc2cc1OC)CCNc1cc2c(cc1-3)OCO2	> 50 µM	
11.3 µM				COc1cc2cc3[n+](cc2cc1OC)CCS(=O)(=O)c1cc2c(cc1-3)OCO2		
> 20 µM				COc1cc2cc3[n+](cc2cc1OC)CCCS(=O)(=O)c1cc2c(cc1-3)OCO2		
4.65 µM	34.9 µM	28.6 µM	49.5 µM	COc1cc2cc3[n+](cc2cc1OC)CCSc1cc2c(cc1-3)OCO2	> 50 µM	
